Experimental data as given in US12097200B2, “Combination of BI853520 with chemotherapeutic drugs” (INXMED (NANJING) CO., LTD., priority 2020, dated 2024).
Where “and” joins values, the source holds several entries; their conditions need not be identical. Equal values may be shown once.

Experiments:
CTG-1427 = assay: Antitumor activity in ovarian cancer PDX model CTG-1427; assay type: in vivo, mouse; settings: 42 days until end of test, doses as Table 3
Description: (§3) Body weights (at start of dosing) were approximately 20 grams. […] Immunocompromised female mice were housed in HEPA ventilated cages (Innocage® IVC, Innovive USA) at 68-74° F. (20-23° C.) and 30-70% humidity under a 12-hour light/12-hour dark cycle. […] Animals with >10% body weight loss compared to day 0 received DietAel 76A (ClearH2O®, Portland, ME) for free. There were 3 mice in each group.
(§4) Mice were implanted with tumor cells from the ChampionsTumorGraft® ovarian model, which was established from patients previously treated with platinum-based therapy. After tumors reached 1000-1500 mm^3, they were collected, and tumor fragments SCs were implanted in the left flank of female pre-study mice. Each study animal was implanted with a specific passage batch. Tumor volume was measured twice a week with calipers to monitor tumor growth, and tumor volume (TV) was calculated using the formula (0.52×[length×width^2]). […] After initiation of dosing, animals were weighed daily using a digital scale and TV was measured twice weekly. […]
(§5) Inhibitory effect on tumor growth was determined by calculating TGI (100%×[1−(final MTV−initial MTV of the treatment group)/(final MTV−initial MTV of the control group)]). […]
(§6) CR: no TV could be detected (<4×4 mm^2), in 2 consecutive measurements […]

CTG-0958 = assay: Antitumor activity in ovarian cancer PDX model CTG-0958; assay type: in vivo, mouse; settings: 52 days until end of test, doses as Table 3
Description: as §3, §4, §5, §6

CTG-1301 = assay: Antitumor activity in ovarian cancer PDX model CTG-1301; assay type: in vivo, mouse; settings: CTG-1301 (carboplatin and paclitaxel-resistant); 38 days until end of test; doses as Table 3
Description: as §3, §4, §5, §6

HS 746T cells = assay: Antitumor activity in mouse xenograft model of human gastric cancer (HS 746T); assay type: in vivo; settings: HS 746T xenograft, combination of both
Description: (§1) For tumor volume, absolute values were used.
(§2) Appropriate statistical methods were used for evaluation.
HS 746T: Approximately 6 week old mice.

CTG-1498 = assay: Antitumor activity in ovarian cancer PDX model CTG-1498; assay type: in vivo, mouse; settings: CTG-1498 (carboplatin and paclitaxel-resistant); 98 days until end of test; doses as Table 3
Description: as §3, §4, §5, §6

CTG-1809 = assay: Antitumor activity in ovarian cancer PDX model CTG-1809; assay type: in vivo, mouse; settings: CTG-1809 (carboplatin and paclitaxel-resistant); 36 days until end of test; doses as Table 3
Description: as §3, §4, §5, §6

CTG-0252 = assay: Antitumor activity in ovarian cancer PDX model CTG-0252; assay type: in vivo, mouse; settings: 7 days until end of test, BI 853520 50 mg/kg PO BID, PLD 3 mg/kg IV q7d, carboplatin 25 mg/kg IP + paclitaxel 20 mg/kg IV q7d
Description: as §3, §4, §5, §6

CTG-1649 = assay: Antitumor activity in ovarian cancer PDX model CTG-1649; assay type: in vivo, mouse; settings: 40 days until end of test, doses as Table 3
Description: as §3, §4, §5, §6

[1] = system: GXA 3039 gastric cancer PDX model
Description: Mice were housed in individual ventilated cages ([sequence] Sealsafe™-IVC-System, [sequence], Hohenpeissenberg, Germany), and type II or III cages were selected according to the number of experimental animals. The cages were under the conditions: 14L:10D light-dark cycle, air exchange (AC) rate of 60-65 AC/hr in the cage, 25±1° C. and 40-70% humidity. […] Water and diet were changed twice a week, and all materials were autoclaved before use.
Tumor fragments were implanted subcutaneously into the flank of female pre-study mice. […] Animals that were not randomized were euthanized. The date of randomization was designated as day 0 of the test, and dosing began on day 1. […] If less than 70% of the original number of mice survived (i.e. less than 6 out of 8), the entire group was terminated. […] Tolerability was assessed using the group with the largest median body weight loss (BWL) among groups.
Inhibition of tumor growth was determined by calculating TGI.
Additional endpoints used to assess efficacy included: time to tumor volume doubling/quadrupling and tumor growth delay/time to tumor progression/tumor repopulation.
Time to tumor volume doubling/quadrupling: The time to tumor volume doubling/quadrupling (Td/Tq) for the test and control groups was defined as the time interval (in days) required for each group to reach 200%/400% of the median RTV. The relative volume of a single tumor on day X (RTVx [%]) was obtained by dividing the absolute volume of the tumor on day X (Tx) by the absolute volume of the tumor on day 0 (T0) and then multiplying it by 100, as follows:
Tumor growth delay/time to tumor progression/tumor repopulation: To assess the difference in time to tumor progression/tumor repopulation after tumor regression during the no-dose observation period (tumor growth delay, TGD), Kaplan-Meier survival analysis was used. A relative tumor volume of 400% was defined as the endpoint.
The control group for oral administration was 0.5% Natrosol. The control group for intravenous administration was 0.9% saline. Each dose was 10 ml/kg.
Data were used for statistical analysis at the end of the study. The one-tailed nonparametric Mann-Whitney-Wilcoxon U test was used with the significance level a set at 0.05. The p-values obtained from the U-test were adjusted using the Bonferroni-Holm correction.
To assess the statistical significance of differences in time to tumor progression/tumor growth delay (TGD) using 400% of RTV as the trial endpoint, the Kaplan-Meier survival mode statistic was used in conjunction with the log-rank Mantel-Cox test for pairwise comparisons.
Additionally, to assess tolerance to treatment, a two-tailed nonparametric Mann-Whitney-Wilcoxon U test was performed using body weights determined at the end of the dosing period (i.e., on the day TGI values were calculated).
By convention, p-values≤0.05 represented significant tumor inhibition or weight loss.

TOV-21G cells = assay: Antitumor activity in mouse model of human ovarian cancer (TOV-21G xenograft); assay type: in vivo; settings: combination of both
Description: as §1, §2
TOV-21G cells harboring KRAS and PIK3CA gene mutations were obtained from ATCC (CRL-11730).

CTG-0257 = assay: Antitumor activity in ovarian cancer PDX model CTG-0257; assay type: in vivo, mouse; settings: 30 days until end of test, doses as Table 3
Description: as §3, §4, §5, §6

SKOV-3 cells = assay: Antitumor activity in mouse model of human ovarian cancer (SKOV-3 xenograft); assay type: in vivo; settings: combination of both
Description: as §1, §2
SKOV-3 cells harboring CDKN2, MLH1, PIK3CA and TP53 gene mutations were obtained from ATCC (HTB-77).
PLD (Doxil) was purchased from Johnson & Johnson and dissolved in sterile 5% glucose solution.
Treatment was initiated when the median tumor volume was between 70 and 110 mm^3.

CTG-0791 = assay: Antitumor activity in ovarian cancer PDX model CTG-0791; assay type: in vivo, mouse; settings: CTG-0791 (carboplatin and paclitaxel-resistant); 35 days until end of test; doses as Table 3
Description: as §3, §4, §5, §6

CTG-1677 = assay: Antitumor activity in ovarian cancer PDX model CTG-1677; assay type: in vivo, mouse; settings: 32 days until end of test, doses as Table 3
Description: as §3, §4, §5, §6

A2780 cells = assay: Antitumor activity in mouse model of human ovarian cancer (A2780 xenograft); assay type: in vivo
Description: as §1, §2
A2780 cells harboring PTEN gene mutations were obtained from ECACC (93112519).

KYSE-270 cells = assay: Antitumor activity in mouse xenograft model of human esophageal cancer (KYSE-270); assay type: in vivo; settings: KYSE-270 xenograft, combination of both
Description: as §1, §2
Mice were approximately 8-10 weeks old.
KYSE-270 was a cell line for esophageal cancer (Public Health England, Cat. No. 94072021).

CTG-1180 = assay: Antitumor activity in ovarian cancer PDX model CTG-1180; assay type: in vivo, mouse; settings: CTG-1180 (carboplatin and paclitaxel-resistant); 42 days until end of test; doses as Table 3
Description: as §3, §4, §5, §6

KYSE-70 cells = assay: Antitumor activity in mouse xenograft model of human esophageal cancer (KYSE-70); assay type: in vivo; settings: KYSE-70 xenograft, combination of both
CTG-1086 = assay: Antitumor activity in ovarian cancer PDX model CTG-1086; assay type: in vivo, mouse; settings: 28 days until end of test, doses as Table 3
Description: as §3, §4, §5, §6

CTG-1395 = assay: Antitumor activity in ovarian cancer PDX model CTG-1395; assay type: in vivo, mouse; settings: 33 days until end of test, doses as Table 3
Description: as §3, §4, §5, §6

PC-3 cells = assay: Antitumor activity in mouse xenograft model of human prostate cancer (PC-3); settings: PC-3 xenograft, combination of both
CTG-0868 = assay: Antitumor activity in ovarian cancer PDX model CTG-0868; assay type: in vivo, mouse; settings: 25 days until end of test, doses as Table 3
Description: as §3, §4, §5, §6

[2] = BI 853520 50 mg/kg qd, docetaxel 10 mg/kg q7d
[3] = day 22, BI 853520 12.5 mg/kg qd by gavage, PLD 1 mg/kg q7d i.v.
[4] = BI 853520 50 mg/kg qd, paclitaxel 10 mg/kg q7d
[5] = BI 853520 25 mg/kg qd, docetaxel 7.5 mg/kg q7d

SMILES: COc1cc(C(=O)NC2CCN(C)CC2)c(F)cc1Nc1ncc(C(F)(F)F)c(Oc2cccc3c2C(=O)N(C)C3)n1 [BI 853520, 2-fluoro-5-methoxy-4-[(4-(2-methyl-3-oxo-2,3-dihydro-1H-isoindole-4-oxy)-5-trifluoromethyl-pyrimidin-2-yl)amino]-N-(1-methyl-piperidin-4-yl)benzamide]
- TGI (%) (CTG-1427): 59%
- TGI (%) (CTG-0958): 99%
- TGI (%) (CTG-1301): 43%
- Median tumor volume (HS 746T cells; day 24 (withdrawal on day 28), BI 853520 50 mg/kg qd by gavage, docetaxel 10 mg/kg q7d i.v.): 229 mm^3
- Antitumor effect (in words) (HS 746T cells; [2]): had inhibitory effect
- Change in median body weight (HS 746T cells; [2]): 7.3%
- TGI (HS 746T cells; [2]): 93%
- Tumor regression (animals with regression/animals in group) (HS 746T cells; [2]): 1 of 8 and 1/8
- TGI (%) (CTG-1498): 128%
- TGI (%) (CTG-1809): −58%
- TGI (%) (CTG-0252): 54%
- TGI (%) (CTG-1649): 71%
- Antitumor effect (in words) ([1]; GXA 3039 PDX, doses as Table 8): did not show any antitumor efficacy
- Td (time to tumor volume doubling) ([1]; GXA 3039 PDX, time to 200% of median RTV, doses as Table 8): 8.1 days
- Tq (time to tumor volume quadrupling) ([1]; GXA 3039 PDX, time to 400% of median RTV, nr = not reached until end of test, doses as Table 8): 41.2 days
- TGI [%] (d) ([1]; GXA 3039 gastric cancer PDX, day 36, BI 853520 50 mg/kg/d PO days 1-35, docetaxel 10 mg/kg IV days 1, 8, 15, 22, 29, combination of both): 0% and 0(36) %
- Survival rate ([1]; female, BomTac:NMRI-Foxn1nu, mouse, in vivo): 4/8
- Antitumor effect (in words) (TOV-21G cells; BI 853520 12.5 mg/kg qd, PLD 1 mg/kg q7d): good efficacy at low doses
- TGI (TOV-21G cells; day 1 to day 22, median tumor volumes, BI 853520 12.5 mg/kg qd, PLD 1 mg/kg q7d): 67%
- Median tumor volume (TOV-21G cells; [3]): 271 mm^3
- Tumor regression (animals with regression/animals in group) (TOV-21G cells; [3]): no tumor regression and 0/7
- TGI (%) (CTG-0257): 67%
- TGI (SKOV-3 cells; day 1 to day 22, median tumor volumes, BI 853520 50 mg/kg qd, PLD 5 mg/kg q7d): 57%
- Median tumor volume (SKOV-3 cells; day 22, BI 853520 50 mg/kg qd by gavage, PLD 5 mg/kg q7d i.v.): 306 mm^3
- Tumor regression (animals with regression/animals in group) (SKOV-3 cells; day 22, BI 853520 50 mg/kg qd, PLD 5 mg/kg q7d): no tumor regression and 0/7
- TGI (%) (CTG-0791): −21%
- TGI (%) (CTG-1677): 51%
- Antitumor effect (in words) (A2780 cells; BI 853520 25 and 50 mg/kg qd, PLD 5 mg/kg q7d, combination 50 + 5 mg/kg): efficacy of BI 853520 was observed at medium and high dose levels
- TGI (A2780 cells; day 1 to day 15, BI 853520 12.5 mg/kg qd): 19%
- TGI (A2780 cells; day 1 to day 15, BI 853520 25 mg/kg qd): 83%
- TGI (A2780 cells; day 1 to day 15, BI 853520 50 mg/kg qd, PLD 5 mg/kg q7d, combination of both): 85%
- Median tumor volume (A2780 cells; day 15, BI 853520 12.5 mg/kg qd by gavage): 968 mm^3
- Tumor regression (animals with regression/animals in group) (A2780 cells; day 15, BI 853520 12.5 mg/kg qd, 12.5 mg/kg): no tumor regression and 0/10
- Median tumor volume (A2780 cells; day 15, BI 853520 25 mg/kg qd by gavage): 284 mm^3
- Tumor regression (animals with regression/animals in group) (A2780 cells; day 15, BI 853520 25 mg/kg qd, 25 mg/kg): no tumor regression and 0/10
- Median tumor volume (A2780 cells; day 15, BI 853520 50 mg/kg qd by gavage, PLD 5 mg/kg q7d i.v., combination of both): 262 mm^3
- Tumor regression (animals with regression/animals in group) (A2780 cells; day 15, BI 853520 50 mg/kg qd, PLD 5 mg/kg q7d, combination of both): no tumor regression and 0/10
- Median tumor volume (KYSE-270 cells; day 13, BI 853520 50 mg/kg qd by gavage, paclitaxel 10 mg/kg q7d i.v.): 126 mm^3
- TGI (KYSE-270 cells; day 13, BI 853520 50 mg/kg qd, paclitaxel 10 mg/kg q7d): 106%
- Antitumor effect (in words) (KYSE-270 cells; [4]): had inhibitory effect on tumor growth
- Change in median body weight (KYSE-270 cells; [4]): 2.8%
- Tumor regression (animals with regression/animals in group) (KYSE-270 cells; [4]): 6 of 7 and 6/7
- TGI (%) (CTG-1180): 33%
- Median tumor volume (KYSE-70 cells; day 42, BI 853520 50 mg/kg qd by gavage, docetaxel 10 mg/kg q7d i.v.): 497 mm^3
- Antitumor effect (in words) (KYSE-70 cells; [2]): no inhibitory effect on tumor growth
- Change in median body weight (KYSE-70 cells; [2]): 8.8%
- TGI (KYSE-70 cells; [2]): 42%
- Tumor regression (animals with regression/animals in group) (KYSE-70 cells; [2]): 1 of the 7 and 1/7
- TGI (%) (CTG-1086): 39%
- TGI (%) (CTG-1395): 41%
- Median tumor volume (PC-3 cells; day 35 (withdrawal on day 28), BI 853520 25 mg/kg qd by gavage, docetaxel 7.5 mg/kg q7d i.v.): 316 mm^3
- Antitumor effect (in words) (PC-3 cells; [5]): certain inhibitory effect on tumor growth
- Change in median body weight (PC-3 cells; [5]): 2.4%
- TGI (PC-3 cells; [5]): 66%
- Tumor regression (animals with regression/animals in group) (PC-3 cells; [5]): 0/7
- TGI (%) (CTG-0868): 54%
